Assay results from patent publication US20230192705A1, “SHP2 INHIBITORS, COMPOSITIONS AND USES THEREOF” (Betta Pharmaceuticals Co., Ltd, priority 2020, published 2023).

Experiments:
SHP2 = molecular target: T1, SHP2 (Homo sapiens, UniProt Q06124); assay: SHP2 allosteric inhibitor enzyme activity assay (DiFMUP fluorescence); format: biochemical
T1 sequence (Q06124 1-593): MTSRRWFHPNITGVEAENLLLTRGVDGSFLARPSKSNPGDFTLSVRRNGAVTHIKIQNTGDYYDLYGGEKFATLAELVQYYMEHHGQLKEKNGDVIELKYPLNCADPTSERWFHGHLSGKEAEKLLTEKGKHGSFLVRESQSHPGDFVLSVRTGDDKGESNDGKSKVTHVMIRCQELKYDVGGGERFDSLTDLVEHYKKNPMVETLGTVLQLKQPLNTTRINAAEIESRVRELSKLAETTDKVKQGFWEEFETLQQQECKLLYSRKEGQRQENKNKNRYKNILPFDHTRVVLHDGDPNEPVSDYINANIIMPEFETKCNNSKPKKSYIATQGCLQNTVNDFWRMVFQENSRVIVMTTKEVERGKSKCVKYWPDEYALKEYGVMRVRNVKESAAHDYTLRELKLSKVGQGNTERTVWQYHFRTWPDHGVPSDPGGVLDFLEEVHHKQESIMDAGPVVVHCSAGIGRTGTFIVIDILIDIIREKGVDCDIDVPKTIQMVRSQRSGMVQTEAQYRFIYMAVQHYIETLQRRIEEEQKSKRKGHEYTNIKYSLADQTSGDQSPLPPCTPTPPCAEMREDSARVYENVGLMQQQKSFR
Outline: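 SHP2 activated by 0.5 μM IRS1_pY1172(dPEG8)pY1222 peptide, 0.2 ng enzyme per well, 1 h at room temperature with compound (1 μM top, 3-fold series), then DiFMUP substrate 1 h. Buffer: 60 mM HEPES, 75 mM NaCl, 75 mM KCl, 0.05% BRIJ-35, 1 mM EDTA, 5 mM DTT. Fluorescence ex 340/em 450 nm; IC50 by variable-slope fit.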

[1] = In vitro metabolic stability in rat liver microsome; format: in vitro ADME; details: rat liver microsomes
Protocol: 1900 mg MgCl2 was dissolved into a final volume of 400 mL ultra-pure water.
17.42 g K2HPO4 and 13.65 g KH2PO4 were dissolved into a final volume of 1000 mL ultra-pure water, respectively. K2HPO4 and KH2PO4 were mixed to prepare 100 mM potassium phosphate (PBS) buffer. The pH value of the final solution was adjusted to pH 7.30±0.10.
Cold ACN (including 10 ng/mL Labetalol and 10 ng/mL Glibenclamid) was stored at 4° C.
Working Solution Preparation:
Verapamil (positive control) and test compound stock solution were diluted into a concentration of 50 μM and 200 μM respectively, using MeOH/ACN/H2O solution (1:1:2, v/v/v).
1) 40 μL MgCl2 and 306 μL PBS were added to 96 plate wells (blank, compound wells, compounds without NADPH wells)
2) 4 μL compound working solution was added to above wells (blank: 4 μL PBS buffer) (Note: the volume of DMSO in final incubation system ≤0.5%)
3) 10 μL microsomes (20 mg/mL) was added in each well. The mixture was warmed up for 10 minutes at 37.0° C.
4) 40 μL 10 mM NADPH working solution was added to start reaction. The total volume was 400 μL.
5) Aliquots of 50 μL samples were taken from the reaction solution at 0, 5, 15, 45 min. The reaction solutions were stopped by the addition of 400 μL stop solution.
6) The sampling plates were shaked for approx. 5 min.
7) Samples were centrifuged at 3200 rcf for 10 min. then transferred 50 μL to a new plate dilute with 200 μL H2O for LC/MS/MS analysis.
Use equation of first order kinetics to calculate t1/2 and CL: […]
Where k represents elimination constant, which is calculated from a log linear plot of % Remaining versus time. t1/2 represents the half-life. Cprotein is the concentration of liver microsomes.

IC50 (SHP2; class symbols) | CLint Rat [1] | IC50 (SHP2; numeric values) | Structure (SMILES)
≤ 20 nM | – | – | N[C@@H]1c2ccccc2CC12CCN(c1nc3[nH]nc(C4(c5ccccc5)COC4)c3c(=O)[nH]1)CC2 [Example 96, (S)-6-(1-amino-1,3-dihydrospiro[indene-2,4′-piperidin]-1′-yl)-3-(3-phenyloxetan-3-yl)-1,5-dihydro-4H-pyrazolo[3,4-d]pyrimidin-4-one]
≤ 20 nM | 12.4 μL/min/mg proteins | – | N[C@@H]1c2ccccc2CC12CCN(c1nc3[nH]nc(C4(c5ccc(C(F)(F)F)cc5)CC4)c3c(=O)[nH]1)CC2 [Example 228, (S)-6-(1-amino-1,3-dihydrospiro[indene-2,4′-piperidin]-1′-yl)-3-(1-(4-(trifluoromethyl)phenyl)cyclo-propyl)-1,5-dihydro-4H-pyrazolo[3,4-d]pyrimidin-4-one]
≤ 20 nM | – | – | N#Cc1ccc(C2(c3n[nH]c4nc(N5CCC6(CC5)Cc5ccccc5[C@H]6N)[nH]c(=O)c34)CC2)cc1 [Example 237, (S)-4-(1-(6-(1-amino-1,3-dihydrospiro[indene-2,4′-piperidin]-1′-yl)-4-oxo-4,5-dihydro-1H-pyrazolo[3,4-d]pyrimidin-3-yl)cyclopropyl)benzonitrile]
≤ 20 nM | 15.0 μL/min/mg proteins | – | N[C@@H]1c2ccccc2CC12CCN(c1nc3[nH]nc(C4(c5csnn5)CC4)c3c(=O)[nH]1)CC2 [Example 240, (S)-3-(1-(1,2,3-thiadiazol-4-yl)cyclopropyl)-6-(1-amino-1,3-dihydrospiro[indene-2,4′-piperidin]-1′-yl)-1,5-dihydro-4H-pyrazolo[3,4-d]pyrimidin-4-one]
≤ 20 nM | 3.2 μL/min/mg proteins | – | Nc1ccc(C2(c3n[nH]c4nc(N5CCC6(CC5)Cc5ccccc5[C@H]6N)[nH]c(=O)c34)CC2)cc1 [Example 230, (S)-6-(1-amino-1,3-dihydrospiro[indene-2,4′-piperidin]-1′-yl)-3-(1-(4-aminophenyl)cyclopropyl)-1,5-dihydro-4H-pyrazolo[3,4-d]pyrimidin-4-one]
– | 19.1 μL/min/mg proteins | 2.7 nM | N[C@@H]1c2ccccc2CC12CCN(c1nc3[nH]nc(C4(c5ccc6c(c5)OCO6)CC4)c3c(=O)[nH]1)CC2 [Example 34, (S)-6-(1-amino-1,3-dihydrospiro[indene-2,4′-piperidin]-1′-yl)-3-(1-(benzo[d][1,3]dioxol-5-yl)cyclopropyl)-1,5-dihydro-4H-pyrazolo[3,4-d]pyrimidin-4-one]
≤ 20 nM | 6.6 μL/min/mg proteins | – | N[C@@H]1c2ccccc2CC12CCN(c1nc3[nH]nc(C4(c5ccc(O)cc5)CC4)c3c(=O)[nH]1)CC2 [Example 234, (S)-6-(1-amino-1,3-dihydrospiro[indene-2,4′-piperidin]-1′-yl)-3-(1-(4-hydroxyphenyl)cyclopropyl)-1,5-dihydro-4H-pyrazolo[3,4-d]pyrimidin-4-one]

The remaining lines, values behind:

Structure (SMILES) | IC50 (SHP2; class symbols) | CLint Rat [1] | IC50 (SHP2; numeric values)
N[C@@H]1c2ccccc2CC12CCN(c1nc3[nH]nc(C4(c5ccccc5)CC4(F)F)c3c(=O)[nH]1)CC2 (stereo partly drawn) [Example 9, 6-((S)-1-amino-1,3-dihydrospiro[indene-2,4′-piperidin]-1′-yl)-3-(2,2-difluoro-1-phenylcyclopropyl)-1,5-dihydro-4H-pyrazolo[3,4-d]pyrimidin-4-one] | ≤ 20 nM | 10.5 μL/min/mg proteins | –
Cn1c(N2CCC3(CC2)Cc2ccccc2[C@H]3N)nc2[nH]nc(C3(c4ccccc4)CC3)c2c1=O [Example 1] | ≤ 20 nM | 34.7 μL/min/mg proteins | –
N[C@@H]1c2ccccc2CC12CCN(c1nc3[nH]nc(C4(c5cccc(C(F)(F)F)c5)CC4)c3c(=O)[nH]1)CC2 [Example 8, (S)-6-(1-amino-1,3-dihydrospiro[indene-2,4′-piperidin]-1′-yl)-3-(1-(3-(trifluoromethyl)plienyl)cyclo-propyl)-1,5-dihydro-4H-pyrazolo[3,4-d]pyrimidin-4-one] | – | 11.6 μL/min/mg proteins | 2.2 nM
N[C@@H]1c2ccccc2CC12CCN(c1nc3[nH]nc(C4(c5ccc(Cl)c(Cl)c5)CC4)c3c(=O)[nH]1)CC2 [Example 21, (S)-6-(1-amino-1,3-dihydrospiro[indene-2,4′-piperidin]-1′-yl)-3-(1-(3,4-dichlorophenyl)cyclopropyl)-1,5-dihydro-4H-pyrazolo[3,4-d]pyrimidin-4-one] | ≤ 20 nM | 3.8 μL/min/mg proteins | –
N[C@@H]1c2ccccc2CC12CCN(c1nc3[nH]nc(C4(c5ccccc5)CC4)c3c(=O)[nH]1)CC2 [Example 33] | – | 17.4 μL/min/mg proteins | 0.9 nM
N[C@@H]1c2ccccc2CC12CCN(c1nc3[nH]nc(C4(c5ccc6c(c5)OC(F)(F)O6)CC4)c3c(=O)[nH]1)CC2 [Example 13, (S)-6-(1-amino-1,3-dihydrospiro[indene-2,4′-piperidin]-1′-yl)-3-(1-(2,2-difluorobenzo[d][1,3]dioxol-5-yl)cyclopropyl)-1,5-dihydro-4H-pyrazolo[3,4-d]pyrimidin-4-one] | ≤ 20 nM | 14.3 μL/min/mg proteins | –
N[C@@H]1c2ccccc2CC12CCN(c1nc3[nH]nc(C4(c5ccc(F)cc5)CC4)c3c(=O)[nH]1)CC2 [Example 11, (S)-6-(1-amino-1,3-dihydrospiro[indene-2,4′-piperidin]-1′-yl)-3-(1-(4-fluorophenyl)cyclopropyl)-1,5-dihydro-4H-pyrazolo[3,4-d]pyrimidin-4-one] | ≤ 20 nM | 6.6 μL/min/mg proteins | –
N[C@@H]1c2ccccc2CC12CCN(c1nc3[nH]nc(C4(c5cccs5)CC4)c3c(=O)[nH]1)CC2 [Example 24, (S)-6-(1-amino-1,3-dihydrospiro[indene-2,4′-piperidin]-1′-yl)-3-(1-(thiophen-2-yl)cyclopropyl)-1,5-dihydro-4H-pyrazolo[3,4-d]pyrimidin-4-one] | – | – | 1.6 nM
N[C@@H]1c2ccccc2CC12CCN(c1nc3[nH]nc(C4(c5cccc(F)c5)CC4)c3c(=O)[nH]1)CC2 [Example 6, (S)-6-(1-amino-1,3-dihydrospiro[indene-2,4′-piperidin]-1′-yl)-3-(1-(3-fluorophenyl)cyclopropyl)-1,5-dihydro-4H-pyrazolo[3,4-d]pyrimidin-4-one] | – | 11.2 μL/min/mg proteins | 0.62 nM
